Measurements published in patent US20110294722A1, “ANTIMICROBIAL PEPTIDES” (priority 2008, published 2011).
Read-outs that look alike come from different tables or passages of the source. No end group written: not given here.

Columns and labels:
Assay type in all cases: cell-based
[1] = system: Pectobacterium carotovorum; details: Pectobacterium carotovorum; for MIC (>90% inhibition): 1-2 days at 25° C.; for LC (lethal concentration, 100% inhibition): at least 4 days of incubation
Description: (§1) In-vitro inhibition assays were performed in sterile flat-bottom 96-well plates (Greiner bio-one, Frickenhausen). Antimicrobial peptides were dissolved in 0.01% acetic acid containing 0.2% BSA (500 μg/ml), filter sterilized and stored at −20° C. For inhibition assays dilutions of peptides ranging from 5 to 200 μg/ml were prepared and 10 μl (antibacterial assay) or 20 (antifungal assay) of each concentration was loaded per well.
(§2) Bacteria colonies from overnight agar plate cultures were resuspended into 5 ml LB-medium or HPG-medium (OD600 nm=0.08-0.1) and diluted into LB-medium/HPG-medium (1:100). 90 μl of this suspension containing about 10^5-10^6 CFU/ml of tested bacteria were added to each well resulting in final peptide concentrations of 0, 0.5, 1, 2, 5, 10, and 20 μg/ml. […] The lowest concentration, in which there is no observable growth (>90% inhibition) is referred to as minimal inhibitory concentration (MIC). […] For each peptide concentration two identical inhibition assays were performed.

Pseudomonas corrugata = details: Pseudomonas corrugata; for MIC (>90% inhibition): 1-2 days at 25° C.; for LC (lethal concentration, 100% inhibition): at least 4 days of incubation
Description: as §1, §2

[2] = system: Pseudomonas syringae pv. syringae; details: Pseudomonas syringae pv. syringae; for MIC (>90% inhibition): 1-2 days at 25° C.; for LC (lethal concentration, 100% inhibition): at least 4 days of incubation
Description: as §1, §2

[3] = system: Pseudomonas syringae pv. tomato; details: for LC (lethal concentration, 100% inhibition): at least 4 days of incubation
Description: as §1, §2

[4] = system: Clavibacter michiganensis; test: In-vitro inhibition assay (MIC and LC), Example 3; details: for MIC (>90% inhibition): 1-2 days at 25° C.; for LC (lethal concentration, 100% inhibition): at least 4 days of incubation
Description: as §1, §2

Xanthomonas vesicatoria = test: In-vitro inhibition assay (MIC and LC), Example 3; details: for MIC (>90% inhibition): 1-2 days at 25° C.; for LC (lethal concentration, 100% inhibition): at least 4 days of incubation
Description: as §1, §2

[5] = Pseudomonas syringae pv. tomato
[6] = Pseudomonas syringae pv. tomato, 1-2 days at 25° C.

For RKKKIKIIKRLI-NH2 [SP1-8], the “MIC (>90% inhibition)” value [1] was >10/>10 μg/ml, the “LC (lethal concentration, 100% inhibition)” value [1] was >10/>10 μg/ml and the “MIC (>90% inhibition)” value (Pseudomonas corrugata) was 2.5/2.5 μg/ml. For the same substance, the “LC (lethal concentration, 100% inhibition)” value (Pseudomonas corrugata) was 2.5/2.5 μg/ml, the “MIC (>90% inhibition)” value [2] was 0.25 µg/mL and the “LC (lethal concentration, 100% inhibition)” value [2] was 0.5 µg/mL. The “MIC (>90% inhibition)” value [3] was 10/10 μg/ml, the “LC (lethal concentration, 100% inhibition)” value [3, 5] was 10/10 μg/ml and the “MIC (>90% inhibition)” value [4] was 5.0 µg/mL. For the same substance, the “LC (lethal concentration, 100% inhibition)” value [4] was greater than 10 µg/mL, the “MIC (>90% inhibition)” value (Xanthomonas vesicatoria) was 2.5 µg/mL and the “LC (lethal concentration, 100% inhibition)” value (Xanthomonas vesicatoria) was 5.0 µg/mL.
With RKKKFKFFKRFF-NH2 [SP1-13] the “MIC (>90% inhibition)” value [1] was >10/>10 μg/ml, the “LC (lethal concentration, 100% inhibition)” value [1] was >10/>10 μg/ml and the “MIC (>90% inhibition)” value (Pseudomonas corrugata) was less than 0.1 µg/mL. For the same substance, the “LC (lethal concentration, 100% inhibition)” value (Pseudomonas corrugata) was 0.25 µg/mL, the “MIC (>90% inhibition)” value [2] was 0.1 µg/mL and the “LC (lethal concentration, 100% inhibition)” value [2] was 0.5 µg/mL. The “MIC (>90% inhibition)” value [3] was 1.0 µg/mL, the “LC (lethal concentration, 100% inhibition)” value [3, 5] was 5.0 µg/mL and the “MIC (>90% inhibition)” value [4] was 0.25 µg/mL. For the same substance, the “LC (lethal concentration, 100% inhibition)” value [4] was 1.0 µg/mL, the “MIC (>90% inhibition)” value (Xanthomonas vesicatoria) was 0.5 µg/mL and the “LC (lethal concentration, 100% inhibition)” value (Xanthomonas vesicatoria) was 2.5 µg/mL.
In the case of KRKKLLKRLI-NH2 [SP1-16], the “MIC (>90% inhibition)” value [1] is reported as >10/>10 μg/ml, the “LC (lethal concentration, 100% inhibition)” value [1] is reported as >10/>10 μg/ml and the “MIC (>90% inhibition)” value (Pseudomonas corrugata) is reported as 0.5 µg/mL. The “LC (lethal concentration, 100% inhibition)” value (Pseudomonas corrugata) was 1.0 µg/mL, the “MIC (>90% inhibition)” value [2] was 0.1 µg/mL and the “LC (lethal concentration, 100% inhibition)” value [2] was 2.5 µg/mL. For the same substance, the “MIC (>90% inhibition)” value [3, 6] was 1.0/1.0 μg/ml, the “LC (lethal concentration, 100% inhibition)” value [3, 5] was 1.0/1.0 μg/ml and the “MIC (>90% inhibition)” value [4] was >10/>10 μg/ml. For the same substance, the “LC (lethal concentration, 100% inhibition)” value [4] was >10/>10 μg/ml, the “MIC (>90% inhibition)” value (Xanthomonas vesicatoria) was 10/>10 μg/ml and the “LC (lethal concentration, 100% inhibition)” value (Xanthomonas vesicatoria) was 10/>10 μg/ml.
In the case of RKKRLKLLKRLL-NH2 [SP1-1], the “LC (lethal concentration, 100% inhibition)” value [1] is reported as >10/>10 μg/ml, the “MIC (>90% inhibition)” value (Pseudomonas corrugata) is reported as less than 0.1 µg/mL and the “LC (lethal concentration, 100% inhibition)” value (Pseudomonas corrugata) is reported as 0.25 µg/mL. The “MIC (>90% inhibition)” value [2] was 0.1/0.1 μg/ml, the “LC (lethal concentration, 100% inhibition)” value [2] was 0.1/0.1 μg/ml and the “MIC (>90% inhibition)” value [3] was >10/>10 μg/ml. The “LC (lethal concentration, 100% inhibition)” value [3, 5] was >10/>10 μg/ml, the “MIC (>90% inhibition)” value [4] was 2.5/2.5 μg/ml and the “LC (lethal concentration, 100% inhibition)” value [4] was 2.5/2.5 μg/ml. The “MIC (>90% inhibition)” value (Xanthomonas vesicatoria) was 0.1 µg/mL and the “LC (lethal concentration, 100% inhibition)” value (Xanthomonas vesicatoria) was 0.25 µg/mL.
In the case of RKKRLRVVRRLV-NH2 [SP1-5], the “MIC (>90% inhibition)” value [1] is reported as >10/>10 μg/ml, the “LC (lethal concentration, 100% inhibition)” value [1] is reported as >10/>10 μg/ml and the “MIC (>90% inhibition)” value (Pseudomonas corrugata) is reported as 5.0 µg/mL. For the same substance, the “MIC (>90% inhibition)” value [2] was >10/>10 μg/ml, the “LC (lethal concentration, 100% inhibition)” value [2] was >10/>10 μg/ml and the “MIC (>90% inhibition)” value [3, 6] was 1.0 µg/mL. The “LC (lethal concentration, 100% inhibition)” value [3, 5] was 2.5 µg/mL, the “MIC (>90% inhibition)” value [4] was >10/>10 μg/ml and the “LC (lethal concentration, 100% inhibition)” value [4] was >10/>10 μg/ml. The “MIC (>90% inhibition)” value (Xanthomonas vesicatoria) was >10/>10 μg/ml and the “LC (lethal concentration, 100% inhibition)” value (Xanthomonas vesicatoria) was >10/>10 μg/ml.
KKKKIIKRLI-NH2 [SP1-17] was tested, and the “MIC (>90% inhibition)” value [1] was >10/>10 μg/ml, the “LC (lethal concentration, 100% inhibition)” value [1] was >10/>10 μg/ml and the “MIC (>90% inhibition)” value (Pseudomonas corrugata) was 5.0 µg/mL. For the same substance, the “LC (lethal concentration, 100% inhibition)” value (Pseudomonas corrugata) was greater than 10 µg/mL, the “MIC (>90% inhibition)” value [2] was less than 0.1 µg/mL and the “LC (lethal concentration, 100% inhibition)” value [2] was greater than 10 µg/mL. The “MIC (>90% inhibition)” value [3, 6] was 1.0/1.0 μg/ml, the “LC (lethal concentration, 100% inhibition)” value [3, 5] was 1.0/1.0 μg/ml and the “MIC (>90% inhibition)” value [4] was >10/>10 μg/ml. The “LC (lethal concentration, 100% inhibition)” value [4] was >10/>10 μg/ml, the “MIC (>90% inhibition)” value (Xanthomonas vesicatoria) was >10/>10 μg/ml and the “LC (lethal concentration, 100% inhibition)” value (Xanthomonas vesicatoria) was >10/>10 μg/ml.
In the case of RKKRKKLLKRLI-NH2 [SP1-20], the “MIC (>90% inhibition)” value [1] is reported as >10/>10 μg/ml, the “LC (lethal concentration, 100% inhibition)” value [1] is reported as >10/>10 μg/ml and the “MIC (>90% inhibition)” value (Pseudomonas corrugata) is reported as 0.5/0.5 μg/ml. The “LC (lethal concentration, 100% inhibition)” value (Pseudomonas corrugata) was 0.5/0.5 μg/ml, the “MIC (>90% inhibition)” value [2] was 0.25 µg/mL and the “LC (lethal concentration, 100% inhibition)” value [2] was 10 µg/mL. The “MIC (>90% inhibition)” value [3, 6] was 10/>10 μg/ml, the “LC (lethal concentration, 100% inhibition)” value [3, 5] was 10/>10 μg/ml and the “MIC (>90% inhibition)” value [4] was 5.0 µg/mL. For the same substance, the “LC (lethal concentration, 100% inhibition)” value [4] was 10 µg/mL, the “MIC (>90% inhibition)” value (Xanthomonas vesicatoria) was 10/>10 μg/ml and the “LC (lethal concentration, 100% inhibition)” value (Xanthomonas vesicatoria) was 10/>10 μg/ml.
In the case of RKKRLKVVKRLV-NH2 [SP1-4], the “MIC (>90% inhibition)” value [1] is reported as >10/>10 μg/ml, the “LC (lethal concentration, 100% inhibition)” value [1] is reported as >10/>10 μg/ml and the “MIC (>90% inhibition)” value (Pseudomonas corrugata) is reported as >10/>10 μg/ml. The “LC (lethal concentration, 100% inhibition)” value (Pseudomonas corrugata) was >10/>10 μg/ml, the “MIC (>90% inhibition)” value [2] was 5.0 µg/mL and the “LC (lethal concentration, 100% inhibition)” value [2] was greater than 10 µg/mL. For the same substance, the “MIC (>90% inhibition)” value [3, 6] was 2.5 µg/mL, the “LC (lethal concentration, 100% inhibition)” value [3, 5] was greater than 10 µg/mL and the “MIC (>90% inhibition)” value [4] was >10/>10 μg/ml. For the same substance, the “LC (lethal concentration, 100% inhibition)” value [4] was >10/>10 μg/ml, the “MIC (>90% inhibition)” value (Xanthomonas vesicatoria) was >10/>10 μg/ml and the “LC (lethal concentration, 100% inhibition)” value (Xanthomonas vesicatoria) was >10/>10 μg/ml.
